The values that follow come from the OligoGym collection.

Where “and” joins values, the source holds several entries; their conditions need not be identical. Identical values can stand only once. After the bases stand the sugars from the 5' end (letter, count) and the backbone: PS all phosphorothioate, else s phosphorothioate and o phosphodiester by linkage. Methylation of C is not given here. k = constrained ethyl (cEt); d = 2'-deoxy (DNA)

The target of this data set is MALAT1. The note with it: ASO, A431, 0.005 µM.
On to GAGGGACAGTAGGTAT (sugars k3 d10 k3, PS), for which the target mRNA inhibition was found to be 19%. With GAGGGAGTTGAGGCAA (sugars k3 d10 k3, PS), the target mRNA inhibition is 24%. With GAGGGCCTCTATTGCC (sugars k3 d10 k3, PS), the target mRNA inhibition was found to be 14%.

Take GAGTATGCTGATAAAC (sugars k3 d10 k3, PS): the target mRNA inhibition was 37%.

On to GAGTGAAGTGTACTAT (sugars k3 d10 k3, PS), for which the target mRNA inhibition was 62% and 77%. In the case of GAGTTCAAGTGGCCTT (sugars k3 d10 k3, PS), the target mRNA inhibition worked out at 17%.

With GATCACCTTCCGCCGC (sugars k3 d10 k3, PS), the target mRNA inhibition stood at 6%. Consider GATCATAATCTCCCAC (sugars k3 d10 k3, PS), for which the target mRNA inhibition was found to be 41%. Regarding GATCTTGAATTACTTC (sugars k3 d10 k3, PS), the target mRNA inhibition came to 49%. The figure for GATGTGATTTTTAACC (sugars k3 d10 k3, PS) is 52% and 56%; for GATTAATGTAGTGTAA (sugars k3 d10 k3, PS) it is 23%; for GATTGTAAGCATTTAA (sugars k3 d10 k3, PS) it is 54% and 67%. Regarding GCAAGGTCTCATACAC (sugars k3 d10 k3, PS), the target mRNA inhibition was 48% and 59%. Regarding GCAATTCAAAATCCTG (sugars k3 d10 k3, PS), the target mRNA inhibition is 51%. As for GCACATCATGCTATTC (sugars k3 d10 k3, PS), the target mRNA inhibition was 45%.

On to GCACGGAAATTTTTCT (sugars k3 d10 k3, PS), for which the target mRNA inhibition was -3%. As to GCACGGGCTGTCTGCT (sugars k3 d10 k3, PS), the target mRNA inhibition is -12%.

Take GCACTAAAGATCACTG (sugars k3 d10 k3, PS): the target mRNA inhibition amounted to 23%. Turning to GCACTGATCACTTTAG (sugars k3 d10 k3, PS), the target mRNA inhibition is 63% and 47% and 50%. Turning to GCAGCGGGATCAGAAC (sugars k3 d10 k3, PS), the target mRNA inhibition was 34%. In the case of GCAGTAGGGCTTCTCA (sugars k3 d10 k3, PS), the target mRNA inhibition is -8%.

Regarding GCAGTTTCTATAGTAG (sugars k3 d10 k3, PS), the target mRNA inhibition turned out to be 45%. On to GCATAAAGCTGAAATC (sugars k3 d10 k3, PS), for which the target mRNA inhibition is 4%. Under GCCAACTTGGAAGTTG (sugars k3 d10 k3, PS) stands -19%; under GCCACTCAAATGCCTA (sugars k3 d10 k3, PS), 18%. Consider GCCAGTGGCCCACTCT (sugars k3 d10 k3, PS), for which the target mRNA inhibition was -8%. The figure for GCCATCTACTATTTCT (sugars k3 d10 k3, PS) is 38%; for GCCCCCTCAGCAGAAG (sugars k3 d10 k3, PS) it is 25%.

Take GCCCCTGCGCTGGCTG (sugars k3 d10 k3, PS): the target mRNA inhibition came to 12%. With GCCCGCTTTCCCCCTT (sugars k3 d10 k3, PS), the target mRNA inhibition was -29%. Under GCCGTTGGCTGCCAGT (sugars k3 d10 k3, PS) stands -8%. Turning to GCCTACCACTCTAAGA (sugars k3 d10 k3, PS), the target mRNA inhibition is 29%. As for GCCTACTCAAGCTCTT (sugars k3 d10 k3, PS), the target mRNA inhibition turned out to be 20%. The figure for GCCTCAATGCCTACCG (sugars k3 d10 k3, PS) is -11%.

With GCCTGCTACCTTCATC (sugars k3 d10 k3, PS), the target mRNA inhibition worked out at 36%. Under GCCTGGAATTATTATA (sugars k3 d10 k3, PS) stands 31%.

On to GCCTTTAGGATTCTAG (sugars k3 d10 k3, PS), for which the target mRNA inhibition amounted to 30%. The figure for GCCTTTATCACTCAGC (sugars k3 d10 k3, PS) is 29%; for GCCTTTGTGAGGGAGG (sugars k3 d10 k3, PS) it is -23%.

Regarding GCCTTTTCTAACATAG (sugars k3 d10 k3, PS), the target mRNA inhibition is -1%. For GCGAGTTCAAGTGGCC (sugars k3 d10 k3, PS), the target mRNA inhibition was -5%.

With GCGCCGGGCTTCTGCG (sugars k3 d10 k3, PS), the target mRNA inhibition worked out at 29%. Turning to GCGGTTTCCTCAAGCT (sugars k3 d10 k3, PS), the target mRNA inhibition was 20%.

Take GCTAAGCAATATCTTA (sugars k3 d10 k3, PS): the target mRNA inhibition amounted to 32%.

Take GCTACTTAGCTGTGGT (sugars k3 d10 k3, PS): the target mRNA inhibition turned out to be 28%. Regarding GCTAGGGAAAAGTGGT (sugars k3 d10 k3, PS), the target mRNA inhibition amounted to 5%. In the case of GCTCGCCTCCTCCGTG (sugars k3 d10 k3, PS), the target mRNA inhibition stood at 27%. In the case of GCTCGCTTGCTCCTCA (sugars k3 d10 k3, PS), the target mRNA inhibition worked out at 39%. As for GCTCTGTAGTCCTTTC (sugars k3 d10 k3, PS), the target mRNA inhibition came to 42%. In the case of GCTGAAATTGTCTCAA (sugars k3 d10 k3, PS), the target mRNA inhibition came to 45%. For the sequence GCTGAGGCTTCCCGGC (sugars k3 d10 k3, PS), the target mRNA inhibition was found to be 15%. As to GCTGATAAACTCACTG (sugars k3 d10 k3, PS), the target mRNA inhibition was 55% and 65%.

Take GCTGCAAACTTTAGAC (sugars k3 d10 k3, PS): the target mRNA inhibition was -9%. With GCTTACAGATTTGCTG (sugars k3 d10 k3, PS), the target mRNA inhibition is 8%. As to GCTTATGGAACTTGAA (sugars k3 d10 k3, PS), the target mRNA inhibition was determined as 10%. Take GCTTGGGAAATCTTAG (sugars k3 d10 k3, PS): the target mRNA inhibition turned out to be 7%. On to GCTTTAAATGACGCAA (sugars k3 d10 k3, PS), for which the target mRNA inhibition is -22%. For the sequence GGAAGATTAAAGTGTG (sugars k3 d10 k3, PS), the target mRNA inhibition turned out to be 21%. The figure for GGACAGCTAAGATAGC (sugars k3 d10 k3, PS) is 22%; for GGACGGTTGAGAAGTG (sugars k3 d10 k3, PS) it is -4%. For GGAGGCAAAAAGTAGT (sugars k3 d10 k3, PS), the target mRNA inhibition worked out at 9%. Under GGAGTTACTTGCCAAC (sugars k3 d10 k3, PS) stands 24%; under GGAGTTGAGGCAAGTC (sugars k3 d10 k3, PS), 41%; under GGATTAATGTAGTGTA (sugars k3 d10 k3, PS), 86% and 96%. As to GGATTTGAACCCCGTC (sugars k3 d10 k3, PS), the target mRNA inhibition worked out at 30%. Consider GGCAAAAAGTAGTTCT (sugars k3 d10 k3, PS), for which the target mRNA inhibition was determined as 31%. Under GGCAAATTAATGGCCT (sugars k3 d10 k3, PS) stands 25%; under GGCCGTTGGCTGCCAG (sugars k3 d10 k3, PS), 21%. Under GGCCTTTTAAAGTAGA (sugars k3 d10 k3, PS) stands 28%.

In the case of GGCGGACTTTCTCCCC (sugars k3 d10 k3, PS), the target mRNA inhibition is -17%. For the sequence GGCTGACACTTCTCTT (sugars k3 d10 k3, PS), the target mRNA inhibition was 52% and 64%.
